According to PMC7438494 (Communications Biology, 2020):
Read-outs that look alike come from different tables or passages of the source.

Target: human ATP synthase (Homo sapiens, UniProt P00846+P05496)
Assay: biochemical
Type: biochemical

## COc1nc2ccc(Br)cc2cc1[C@@H](c1ccccc1)[C@@](O)(CCN(C)C)c1cccc2ccccc12 [BDQ, Bedaquiline]
Human Mito, 4th exp (18_12_26), BDQ 1 uM, read-out: Cyanide sensitive % activity
  activity at 1 µM: 8.67%
Human Mito, 4th exp (18_12_26), BDQ 2 uM, read-out: Cyanide sensitive % activity
  activity at 2 µM: 2.82%
Human Mito, 4th exp (18_12_26), BDQ 5 uM, read-out: Cyanide sensitive % activity
  activity at 5 µM: -2.55%
Human Mito, 4th exp (18_12_26), BDQ 10 uM, read-out: Cyanide sensitive % activity
  activity at 10 µM: 0%
Human Mito, 5th exp (19), BDQ in DMSO, Bedaquiline 5e-5 μM, 60 min
  Cyanide sensitive: 8.081 nmol/min/mg
Human Mito, 5th exp (19), BDQ in DMSO, Bedaquiline 0.0005 μM, 60 min
  Cyanide sensitive: 7.799 nmol/min/mg
Human Mito, 5th exp (19), BDQ in DMSO, Bedaquiline 0.0005 μM, 60 min, read-out: % activity
  activity at 0.0005 µM: 75.5%
Human Mito, 5th exp (19), BDQ in DMSO, Bedaquiline 0.005 μM, 60 min
  Cyanide sensitive: 7.932 nmol/min/mg
Human Mito, 5th exp (19), BDQ in DMSO, Bedaquiline 0.005 μM, 60 min, read-out: % activity
  activity at 0.005 µM: 71.9%
Human Mito, 5th exp (19), BDQ in DMSO, Bedaquiline 0.1 μM, 60 min
  Cyanide sensitive: 7.371 nmol/min/mg
Human Mito, 5th exp (19), BDQ in DMSO, Bedaquiline 0.1 μM, 60 min, read-out: % activity
  activity at 0.1 µM: 76.1%
Human Mito, 5th exp (19), BDQ in DMSO, Bedaquiline 0.2 μM, 60 min
  Cyanide sensitive: 5.1485 nmol/min/mg
Human Mito, 5th exp (19), BDQ in DMSO, Bedaquiline 0.2 μM, 60 min, read-out: % activity
  activity at 0.2 µM: 61.2%
Human Mito, 5th exp (19), BDQ in DMSO, Bedaquiline 0.5 μM, 60 min
  Cyanide sensitive: 7.123 nmol/min/mg
Human Mito, 5th exp (19), BDQ in DMSO, Bedaquiline 0.5 μM, 60 min, read-out: % activity
  activity at 0.5 µM: 73.7%
Human Mito, 5th exp (19), BDQ in DMSO, Bedaquiline 0.65 μM, 60 min
  Cyanide sensitive: 5.712 nmol/min/mg
Human Mito, 5th exp (19), BDQ in DMSO, Bedaquiline 0.65 μM, 60 min, read-out: % activity
  activity at 0.65 µM: 69.7%
Human Mito, 5th exp (19), BDQ in DMSO, Bedaquiline 1 μM, 60 min
  Cyanide sensitive: -0.04135 nmol/min/mg
Human Mito, 5th exp (19), BDQ in DMSO, Bedaquiline 1 μM, 60 min, read-out: % activity
  activity at 1 µM: 11.1%
Human Mito, 5th exp (19), BDQ in DMSO, Bedaquiline 2 μM, 60 min
  Cyanide sensitive: -0.9975 nmol/min/mg
Human Mito, 5th exp (19), BDQ in DMSO, Bedaquiline 2 μM, 60 min, read-out: % activity
  activity at 2 µM: 5%
Human Mito, 5th exp (19), BDQ in DMSO, Bedaquiline 5 μM, 60 min
  Cyanide sensitive: -2.758 nmol/min/mg
Human Mito, 5th exp (19), BDQ in DMSO, Bedaquiline 5 μM, 60 min, read-out: % activity
  activity at 5 µM: 0.69%
Human Mito, 5th exp (19), BDQ in DMSO, Bedaquiline 10 μM, 60 min
  Cyanide sensitive: -0.848 nmol/min/mg
Human Mito, 5th exp (19), BDQ in DMSO, Bedaquiline 10 μM, 60 min, read-out: % activity
  activity at 10 µM: 3.96%
Human Mito, 5th exp (19_01_02), BDQ 0.0005 uM, read-out: Cyanide sensitive % activity
  activity at 0.0005 µM: 75.5%
Human Mito, 5th exp (19_01_02), BDQ 0.005 uM, read-out: Cyanide sensitive % activity
  activity at 0.005 µM: 71.9%
Human Mito, 5th exp (19_01_02), BDQ 0.1 uM, read-out: Cyanide sensitive % activity
  activity at 0.1 µM: 76.1%
Human Mito, 5th exp (19_01_02), BDQ 0.2 uM, read-out: Cyanide sensitive % activity
  activity at 0.2 µM: 61.2%
Human Mito, 5th exp (19_01_02), BDQ 0.5 uM, read-out: Cyanide sensitive % activity
  activity at 0.5 µM: 73.7%
Human Mito, 5th exp (19_01_02), BDQ 0.65 uM, read-out: Cyanide sensitive % activity
  activity at 0.65 µM: 69.7%
Human Mito, 5th exp (19_01_02), BDQ 1 uM, read-out: Cyanide sensitive % activity
  activity at 1 µM: 11.1%
Human Mito, 5th exp (19_01_02), BDQ 2 uM, read-out: Cyanide sensitive % activity
  activity at 2 µM: 5%
Human Mito, 5th exp (19_01_02), BDQ 5 uM, read-out: Cyanide sensitive % activity
  activity at 5 µM: 0.69%
Human Mito, 5th exp (19_01_02), BDQ 10 uM, read-out: Cyanide sensitive % activity
  activity at 10 µM: 3.96%
Human Mito, average of experiments, BDQ 5e-6 uM
  Cyanide sensitive % activity, Average: 75.05%
Human Mito, average of experiments, BDQ 5e-5 uM
  Cyanide sensitive % activity, Average: 71.33%
Human Mito, average of experiments, BDQ 0.0005 uM, read-out: Cyanide sensitive % activity, Average
  activity at 0.0005 µM: 78.5%
Human Mito, average of experiments, BDQ 0.005 uM, read-out: Cyanide sensitive % activity, Average
  activity at 0.005 µM: 68%
Human Mito, average of experiments, BDQ 0.1 uM, read-out: Cyanide sensitive % activity, Average
  activity at 0.1 µM: 70.6%
Human Mito, average of experiments, BDQ 0.2 uM, read-out: Cyanide sensitive % activity, Average
  activity at 0.2 µM: 57.6%
Human Mito, average of experiments, BDQ 0.5 uM, read-out: Cyanide sensitive % activity, Average
  activity at 0.5 µM: 52.1%
Human Mito, average of experiments, BDQ 0.65 uM, read-out: Cyanide sensitive % activity, Average
  activity at 0.65 µM: 44.5%
Human Mito, average of experiments, BDQ 0.85 uM, read-out: Cyanide sensitive % activity, Average
  activity at 0.85 µM: 27.4%
Human Mito, average of experiments, BDQ 1 uM, read-out: Cyanide sensitive % activity, Average
  activity at 1 µM: 6.29%
Human Mito, average of experiments, BDQ 2 uM, read-out: Cyanide sensitive % activity, Average
  activity at 2 µM: 0.46%
Human Mito, average of experiments, BDQ 5 uM, read-out: Cyanide sensitive % activity, Average
  activity at 5 µM: -2%
Human Mito, average of experiments, BDQ 10 uM, read-out: Cyanide sensitive % activity, Average
  activity at 10 µM: 0.62%
Human Mito, plotted duplicates, first column, BDQ 0.0005 uM, read-out: % activity
  activity at 0.0005 µM: 81.5%
Human Mito, plotted duplicates, first column, BDQ 0.005 uM, read-out: % activity
  activity at 0.005 µM: 88.5%
Human Mito, plotted duplicates, first column, BDQ 0.1 uM, read-out: % activity
  activity at 0.1 µM: 71.2%
Human Mito, plotted duplicates, first column, BDQ 0.2 uM, read-out: % activity
  activity at 0.2 µM: 59.5%
Human Mito, plotted duplicates, first column, BDQ 0.5 uM, read-out: % activity
  activity at 0.5 µM: 51.2%
Human Mito, plotted duplicates, first column, BDQ 0.65 uM, read-out: % activity
  activity at 0.65 µM: 37.6%
Human Mito, plotted duplicates, first column, BDQ 0.85 uM, read-out: % activity
  activity at 0.85 µM: 33.1%
Human Mito, plotted duplicates, first column, BDQ 1 uM, read-out: % activity
  activity at 1 µM: 8.67%
Human Mito, plotted duplicates, first column, BDQ 2 uM, read-out: % activity
  activity at 2 µM: 2.82%
Human Mito, plotted duplicates, first column, BDQ 5 uM, read-out: % activity
  activity at 5 µM: -2.55%
Human Mito, plotted duplicates, first column, BDQ 10 uM, read-out: % activity
  activity at 10 µM: -2.1%
Human Mito, plotted duplicates, second column, BDQ 0.0005 uM, read-out: % activity
  activity at 0.0005 µM: 75.5%
Human Mito, plotted duplicates, second column, BDQ 0.005 uM, read-out: % activity
  activity at 0.005 µM: 71.9%
Human Mito, plotted duplicates, second column, BDQ 0.1 uM, read-out: % activity
  activity at 0.1 µM: 76.1%
Human Mito, plotted duplicates, second column, BDQ 0.2 uM, read-out: % activity
  activity at 0.2 µM: 61.2%
Human Mito, plotted duplicates, second column, BDQ 0.5 uM, read-out: % activity
  activity at 0.5 µM: 58%
Human Mito, plotted duplicates, second column, BDQ 0.65 uM, read-out: % activity
  activity at 0.65 µM: 40%
Human Mito, plotted duplicates, second column, BDQ 0.85 uM, read-out: % activity
  activity at 0.85 µM: 32.5%
Human Mito, plotted duplicates, second column, BDQ 1 uM, read-out: % activity
  activity at 1 µM: 11.1%
Human Mito, plotted duplicates, second column, BDQ 2 uM, read-out: % activity
  activity at 2 µM: 1.13%
Human Mito, plotted duplicates, second column, BDQ 5 uM, read-out: % activity
  activity at 5 µM: 0.69%
Human Mito, plotted duplicates, second column, BDQ 10 uM, read-out: % activity
  activity at 10 µM: 3.96%
In words
  extent of inhibition of ATP synthesis of the human enzyme: nearly completely
read-out: % activity
  activity at 0.0005 µM: 89.6%
  activity at 0.1 µM: 81.7%
  activity at 0.2 µM: 77.1%
  activity at 0.5 µM: 62.5%
  activity at 0.85 µM: 54%
  activity at 1 µM: 48.4%
  activity at 2 µM: 45.8%
  activity at 10 µM: 36.3%
read-out: % inhibition
  inhibition at 0.2 µM: 22.9%
  inhibition at 0.5 µM: 37.5%
  inhibition at 1 µM: 57.4%
  inhibition at 2 µM: 54.2%
  inhibition at 10 µM: 63.7%
